Reference: patent publication US20060014231A1, “Methods and compositions to promote bone homeostasis” (priority 2004, published 2006)
Entries after “also recorded” stand apart in the source; their conditions may differ.

Test system: calvarial skull bones (hemicalvaria)
Assay: Calvarial skull assay (bone organ culture, weight and histological readout)
Set-up: species or system CD1 mice
Description: CD1 pups are harvested around birth from CD1 female mice (received from Janvier (Le Genest St Isle, France) when they were 11 days pregnant). Pups are decapitated and the calvarial skull is dissected and split into 2 hemicalvaria. Hemicalvaria are blotted using sterile gauze, weighed and cultured in 24 well plates (MEMalpha or BGJb-Fitton-Jackson medium containing 50 μg/ml L-ascorbic acid (Sigma, A-4034), 5 mM β-glycerophosphate (Sigma, G-9891) and Penicillin-Streptomycin (Invitrogen Cat # 15140-122)). Small molecules (ligands, agonists, antagonists) are tested in at least three-fold at a minimum of 3 concentrations. Each small molecule is added to the medium on day 0 and added again when refreshing the medium (every 2-3 days). Three to 16 days after the start of the experiment, skulls are weighed again after blotting them dry using sterile gauze. The weight difference is calculated, expressed as percent weight change and the mean and standard deviations (SD) are calculated for the triplicate measurements. Data are analyzed using the Student's t-test.
The formation of new osteoid is analyzed histologically as follows: hemicalvaria are fixed in 10% buffered formalin for at least 2 days, decalcified in 10% EDTA overnight, processed through graded alcohols and embedded in paraffin wax. Three to 10 μm sections are prepared of the calvaria and stained with hematoxylin and eosin (H&E). Healthy cells, dead cells, old and new bone, and collagen are identified by their distinctive morphology and colouring observed after H&E staining. The surfaces taken by these are measured stereologically (μm^2 readout) and termed Osteoblast area, Debris area, Native and New bone area, Collagen area and Total area (sum of the previous 5 areas), respectively. In addition, the thickness (μm readout) is measured at 8 positions, evenly spaced over the section.
The histological readout of the calvarial skull assay is developed using known osteogenic agents. Hemicalvaria were treated with recombinant human parathyroid hormone (rhPTH).
T0901317 is added to the culture medium of the dissected hemicalvaria at the day of dissection at several doses (19.5, 78.1 and 313 nM), in fourfold. The concentration of the solvent (vehicle), DMSO, is fixed at a final concentration of 0.05%. The medium, containing T0901317 or vehicle control is refreshed every 2-3 days. Hemicalvaria are harvested 7 days after the initiation of the experiment and subjected to the histological analysis described above.

[1] = 19.5, 78.1 and 313 nM, 7 days, H&E histology
[2] = 19.5, 78.1 and 313 nM, 7 days, H&E histology, versus 0.05% DMSO

O=S(=O)(c1ccccc1)N(CC(F)(F)F)c1ccc(C(O)(C(F)(F)F)C(F)(F)F)cc1 [T0901317]
thickness [1]: Dose-response activity
total area (sum of all areas measured) [1]: Dose-response activity
collagen area [2]: Statistically significant increases
new bone area [2]: Statistically significant increases
osteoblast area [2]: Statistically significant increases; also recorded: Dose-response activity
weight change of calvarial skull explants (figure legends FIG. 17 and FIG. 18): Weight increases
